The test system of experiment [1] is gegen Benzimidazol-Anthelmintika resistenten Haemonchus contortus. Kind of experiment: Haemonchus contortus/sheep test, benzimidazole-resistant strain (faecal egg count before and after oral treatment). It is filed as in vivo. Particulars: read-out: Dosis effectiva minima (Red. ≥90 %) resistenter Stamm. The text has this:
(§1) Haemonchus contortus/Schaf
(§2) Experimentell mit normal empfindlichen bzw. mit gegen Benzimidazol-Anthelmintika resistenten Haemonchus contortus infizierte Schafe wurden nach Ablauf der Präpatenzzeit des Parasiten behandelt. Die Wirkstoffe wurde als reiner Wirkstoff in Gelatinekapseln oral appliziert.
(§3) Der Wirkungsgrad wird dadurch bestimmt, daß man die mit dem Kot ausgeschiedenen Wurmeier vor und nach der Behandlung quantitativ auszählt.
(§4) Ein völliges Sistieren der Eiausscheidung nach der Behandlung bedeutet, daß die Würmer abgetrieben wurden oder so geschädigt sind, daß sie keine Eier mehr produzieren (Dosis effectiva).
(§5) Geprüfte Wirkstoffe und wirksame Dosierungen (Dosis effectiva minima) sind aus der nachfolgenden Tabelle ersichtlich: […]

Experiment [2] has as its system normal empfindlichen Haemonchus contortus. The experiment can be described thus: Haemonchus contortus/sheep test, normally sensitive strain (faecal egg count before and after oral treatment). Particulars: Schaf, pure active substance in gelatine capsules, treated after prepatent period, reduction of worm egg excretion ≥90 %, read-out: Dosis effectiva minima (Red. ≥90 %) normal empfind-licher Stamm. In kind it is in vivo.
Description: as §1, §2, §3, §4, §5

[3] abbreviates: Schaf, oral, pure active substance in gelatine capsules, treated after prepatent period, reduction of worm egg excretion ≥90 %, benzimidazole-resistant strain.

Where two headings read alike, the source gives them in different places.

`CCCSc1ccc2nc(NC(=O)OC)[nH]c2c1` [Albendazol, Methyl-(5-prepylthio-benzimidazol-2-yl)-carbamat]: the minimal effective dose in experiment [1] (po) was 5 mg/kg; in experiment [2], 0.5 mg/kg.
On to `COC(=O)Nc1nc2ccc(Sc3ccccc3)cc2[nH]1` [Fenbendazol, Methyl-(5-phenyl-thie-benzimidazol-2-yl)-carbamat], for which the minimal effective dose stood at 2.5 mg/kg in experiment [1] (po) and 0.5 mg/kg in experiment [2].
For `CCCCc1ccc2[nH]c(NC(=O)OC)nc2c1` [Parbendazol, 5-N-Butyl-2-methoxycarbonylaminobenzimidazol], in that order: 10 mg/kg and 1 mg/kg.
For `c1ccc2[nH]c(-c3cscn3)nc2c1` [Thiabendazol, 2-(4-Thiazolyl)-benzimidazel], in that order: 250 mg/kg and 25 mg/kg.
For the compound `CCOP(=S)(OCC)OC(=CC#N)c1cccc(C)c1` [Verbindung Nr. 12], the minimal effective dose in experiment [1] (setting [3]) and in experiment [2] was 1 mg/kg in each case.
With `CCOP(=S)(OCC)OC(=CC#N)c1ccccc1Br` [Verbindung Nr. 46], the minimal effective dose in experiment [1] (setting [3]) and in experiment [2] was 1 mg/kg throughout.
For the compound `CCCOP(=S)(OCC)OC(=CC#N)c1ccccc1C` (centres unmarked) [Verbindung Nr. 89], the minimal effective dose in experiment [1] (setting [3]) and in experiment [2] was 2.5 mg/kg in each case.

Source of the values: patent publication EP0033825A2, “2-Cyano-vinyl-(thiono)(thiol)-phosphoric or phosphonic acid derivatives as endoparasiticidal agents” (priority 1980, dated 1981).
